From PubChem BioAssay AID2060484 (Molecular Pharmacology Branch, DTP, NCI, 2025)

System: SUM149PT spheroids with HUVEC/MSC, viability
Experiment: Anticancer human tumor SUM149PT cell line growth inhibition [GQUAD];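 note: spheroids exposed to drugs for seven days before readout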;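 for viability, T/C: percent viability relative to DMSO vehicle control taken as 100%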
Conditions: for IC50: curve of first compound; for viability, T/C: stronger effect = lower value
Procedure, shortened: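 Viability of tumor cells grown as complex spheroids with endothelial and stromal cells, exposed to drug combinations. Top concentration at or near clinical Cmax (else 10 microM), diluted in half-log increments.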

[1] = second compound 0.0316 µM, first compound 0.0316 µM
[2] = second compound 0.0316 µM, first compound 0.1 µM
[3] = second compound 0.0316 µM, first compound 0.316 µM
[4] = second compound 0.0316 µM, first compound 1 µM
[5] = second compound 0.0316 µM, first compound 3.16 µM
[6] = second compound 0.0316 µM, first compound 10 µM
[7] = second compound 0.1 µM, first compound 0.0316 µM
[8] = second compound 0.1 µM, first compound 0.1 µM
[9] = second compound 0.1 µM, first compound 0.316 µM
[10] = second compound 0.1 µM, first compound 1 µM
[11] = second compound 0.1 µM, first compound 3.16 µM
[12] = second compound 0.1 µM, first compound 10 µM
[13] = second compound 0.316 µM, first compound 0.0316 µM
[14] = second compound 0.316 µM, first compound 0.1 µM
[15] = second compound 0.316 µM, first compound 0.316 µM
[16] = second compound 0.316 µM, first compound 1 µM
[17] = second compound 0.316 µM, first compound 3.16 µM
[18] = second compound 0.316 µM, first compound 10 µM
[19] = second compound 1 µM, first compound 0.0316 µM
[20] = second compound 1 µM, first compound 0.1 µM
[21] = second compound 1 µM, first compound 0.316 µM
[22] = second compound 1 µM, first compound 1 µM
[23] = second compound 1 µM, first compound 3.16 µM
[24] = second compound 1 µM, first compound 10 µM
[25] = second compound 3.16 µM, first compound 0.0316 µM
[26] = second compound 3.16 µM, first compound 0.1 µM
[27] = second compound 3.16 µM, first compound 0.316 µM
[28] = second compound 3.16 µM, first compound 1 µM
[29] = second compound 3.16 µM, first compound 3.16 µM
[30] = second compound 3.16 µM, first compound 10 µM
[31] = second compound 10 µM, first compound 0.0316 µM
[32] = second compound 10 µM, first compound 0.1 µM
[33] = second compound 10 µM, first compound 0.316 µM
[34] = second compound 10 µM, first compound 1 µM
[35] = second compound 10 µM, first compound 3.16 µM
[36] = second compound 10 µM, first compound 10 µM

With `O=C(c1cc(Cc2n[nH]c(=O)c3ccccc23)ccc1F)N1CCN(C(=O)C2CC2)CC1` + Cc1cnc(CNC(=O)c2c(=O)c3ccc(N4CCCN(C)CC4)nc3n3c2sc2ccccc23)cn1 the IC50 (second compound 0.0316 µM) was 9980 nM, the IC50 (second compound 0.1 µM) was greater than 10000 nM and the IC50 (second compound 0.316 µM) was 5010 nM. The IC50 (second compound 1 µM) was less than 31.6 nM, the IC50 (second compound 3.16 µM) was less than 31.6 nM and the IC50 (second compound 10 µM) was less than 31.6 nM. It also gave a viability, T/C [1] of 87.6%, a viability, T/C [2] of 72.1% and a viability, T/C [3] of 83.3%. It also gave a viability, T/C [4] of 88.3%, a viability, T/C [5] of 80.2% and a viability, T/C [6] of 50%. For the same molecule, the viability, T/C [7] was 63.6%, the viability, T/C [8] was 70.1% and the viability, T/C [9] was 65.8%. The viability, T/C [10] was 66.4%, the viability, T/C [11] was 61.4% and the viability, T/C [12] was 44.5%. The viability, T/C [13] was 53.2%, the viability, T/C [14] was 58.5% and the viability, T/C [15] was 55.4%. It also gave a viability, T/C [16] of 54.5%, a viability, T/C [17] of 53.6% and a viability, T/C [18] of 44%. For the same molecule, the viability, T/C [19] was 43%, the viability, T/C [20] was 47% and the viability, T/C [21] was 47.1%. The viability, T/C [22] was 48.4%, the viability, T/C [23] was 48.5% and the viability, T/C [24] was 42.7%. For the same molecule, the viability, T/C [25] was 35.4%, the viability, T/C [26] was 42.2% and the viability, T/C [27] was 40.3%. For the same molecule, the viability, T/C [28] was 38.7%, the viability, T/C [29] was 39.5% and the viability, T/C [30] was 37.6%. For the same molecule, the viability, T/C [31] was 10.2%, the viability, T/C [32] was 12.1% and the viability, T/C [33] was 27.6%. It also gave a viability, T/C [34] of 30.5%, a viability, T/C [35] of 22.6% and a viability, T/C [36] of 2.16%.
In the case of `COc1cc(C2c3cc4c(cc3C(OC3OC5COC(C)OC5C(O)C3O)C3COC(=O)C23)OCO4)cc(OC)c1O` (centres undefined) + Cc1[nH]c2ccc(F)cc2c1-c1nc2c3cccnc3c3ncccc3c2[nH]1, the IC50 (second compound 0.0316 µM) is reported as 875 nM, the IC50 (second compound 0.1 µM) is reported as 554 nM and the IC50 (second compound 0.316 µM) is reported as 784 nM. It also gave an IC50 (second compound 1 µM) of 830 nM, an IC50 (second compound 3.16 µM) of 807 nM and an IC50 (second compound 10 µM) of 607 nM. It also gave a viability, T/C [1] of 102%, a viability, T/C [2] of 86.1% and a viability, T/C [3] of 56.3%. It also gave a viability, T/C [4] of 49.9%, a viability, T/C [5] of 38.5% and a viability, T/C [6] of 18.4%. For the same molecule, the viability, T/C [7] was 105%, the viability, T/C [8] was 77.7% and the viability, T/C [9] was 50.7%. The viability, T/C [10] was 47.1%, the viability, T/C [11] was 36.8% and the viability, T/C [12] was 18.5%. It also gave a viability, T/C [13] of 93.2%, a viability, T/C [14] of 82.3% and a viability, T/C [15] of 54.4%. It also gave a viability, T/C [16] of 46.9%, a viability, T/C [17] of 38.2% and a viability, T/C [18] of 15.4%. The viability, T/C [19] was 97.6%, the viability, T/C [20] was 84.4% and the viability, T/C [21] was 51.3%. For the same molecule, the viability, T/C [22] was 54%, the viability, T/C [23] was 36.5% and the viability, T/C [24] was 13.5%. For the same molecule, the viability, T/C [25] was 88.2%, the viability, T/C [26] was 77.3% and the viability, T/C [27] was 58.2%. For the same molecule, the viability, T/C [28] was 49.3%, the viability, T/C [29] was 33.3% and the viability, T/C [30] was 12.9%. It also gave a viability, T/C [31] of 81.9%, a viability, T/C [32] of 74.7% and a viability, T/C [33] of 48.2%. It also gave a viability, T/C [34] of 49.4%, a viability, T/C [35] of 33.5% and a viability, T/C [36] of 14.3%.
